US4208409A, “N-[(phosphinyl or phosphinothioyl)amino]thio-methylcarbamates and pesticidal methods” (priority 1978, dated 1980)
Read-outs that look alike come from different tables or passages of the source.

Experiments:
southern armyworm (SAW) = test: southern armyworm mortality test (bush lima bean leaf dip); type: in vivo, Prodenia eridania Cramer; details: Spodoptera eridania, foliar
From the text: (§1) Representative pest species have been used, illustratively, order Lepidoptera, more specifically, the southern armyworm (SAW), (Prodenia eridania Cramer), the tobacco budworm (TBW), (Heliothis virescens), and the cabbage looper (CL) (Trichoplusia ni); order Acarina, more specifically, the two-spotted spider mite (TSSM) (Tetranychus urticae Koch); order Diptera, more specifically, the housefly (HF) (Musca domestica Linnaeus) or the yellow-fever mosquito (YFM) (Aedes aegypti); order Orthoptera, more specifically, the house cricket (HC) (Acheta domesticus Linnaeus) or the German cockroach (GC) (Blatella germanica Linnaeus); order Coleoptera, more specifically, the cotton boll weevil (BW) (Anthonomus grandis Boheman).
(§2) Preparation of tested chemicals--Analytical samples of each were dissolved in acetone. These acetone solutions were applied as such or portions of them were diluted with a Tween 20 "wet water" or a 10% sucrose "wet water". The "wet water" itself contained 0.132% v/v of Tween 20 (polyoxyethylene sorbitan monolaurate).
(§3) The southern armyworm and cabbage looper tests were effected with Henderson bush lima bean foliage characterized by two primary leaves per replicate. The leaves were dipped into a "wet water" emulsion of a test chemical, allowed to dry, and then placed on a moistened filter disk in a 9 cm plastic petri dish. Five larva of the respective test insects were put on the leaves, the cover of the petri dish was replaced, and it was set aside for future evaluation. Three replications for each treatment rate were prepared.
(§4) The southern armyworm, house cricket, boll weevil, house fly, and cabbage looper tests were held at 22° C., while the yellow fever mosquito larvae tests were held at 27° C.
(§5) The tests were evaluated for insect kill (including moribund and knocked down) after 24, 48, and sometimes 72 hours.

plant = test: phytotoxicity compared with the parent compound; type: in vivo; details: for average phytotoxicity index: after eight days, scale 0 = no damage, 10 = complete kill of plant
From the text: (§6) In other tests, the phytotoxicity, residual effectiveness, and animal toxicity of e.g. Methyl N-[[[[[(diethoxyphosphinothioyl)isopropylamino]thio]methylamino]carbonyl]oxy]ethanimidothioate were compared with the parent compound, methyl N-[[(methylamino)carbonyl]oxy]ethanimidothioate. […] The parent compound had corresponding index values of 4.25 and 5.0.

[1] = acute oral toxicity to male rats; type: in vivo, rat; details: rat, in vivo
southern armyworm larvae = test: foliar residual effectiveness against southern armyworm larvae on lima bean seedlings; type: in vivo, Prodenia eridania Cramer
From the text: These compounds were also compared for their foliar residual effectiveness against southern armyworm larvae on lima bean seedlings. The compound Methyl N-[[[[[(diethoxyphosphinothioyl)isopropylamino]thio]methylamino]carbonyl]oxy]ethanimidothioate of this invention was producing 100 percent mortality seven weeks after the treatment was applied, whereas the activity of the parent compound at an equivalent rate had dissipated to 20% by the 14th day.

[2] = system: yellow-fever mosquito (YFM); test: whole plant or invertebrate; type: in vivo; details: Aedes aegypti
From the text: as §1, §2
The yellow fever mosquito larvae test was effected by adding the appropriate amount of a wet water and acetone solution of the test chemical to 100 ml distilled water in a 5-ounce waxed paper cup. Ten mosquito larvae were added. […]
as §5

cabbage looper (CL) = test: cabbage looper mortality test (bush lima bean leaf dip); type: in vivo; details: Trichoplusia ni, foliar; for mortality at 11 ppm: rate 11 ppm
From the text: as §1, §2, §3, §4, §5

[3] = Mammalian Toxicity, oral LD50, rat; details: in vivo
tobacco budworm (TBW) = test: tobacco budworm mortality test; type: in vivo; details: Heliothis virescens
From the text: as §1, §2, §5

housefly (HF) = test: house fly mortality test (saturated cotton wad); type: in vivo, Musca domestica Linnaeus; details: Musca domestica
From the text: as §1, §2
(§7) The house fly and boll weevil tests were effected by saturating a golf-ball size wad of cotton with 10 ml of a "10% wet sugar water" preparation of the test chemical. […]
as §5

cotton boll weevil (BW) = test: boll weevil mortality test (saturated cotton wad); type: in vivo, Anthonomus grandis Boheman
From the text: as §1, §2, §7, §5

eggplant = test: phytotoxicity on the sensitive crop, eggplant, compared with the parent compound; type: in vivo
From the text: as §6

male rats = test: acute oral toxicity to male rats; type: in vivo, rat
crystallinity = type: physicochemical

In the case of `CSC(C)=NOC(=O)N(C)SN(C(C)C)P1(=S)OCCCO1` [Methyl-[[[[[isopropyl(2-thioxo-1,3,2-dioxaphosphorinan-2-yl)amino]thio]methylamino]carbonyl]oxy]ethanimidothioate], the mortality at 11 ppm (southern armyworm (SAW)) is reported as 56%.

`CNC(=O)ON=C(C)SC` [methyl N-[[(methylamino)carbonyl]oxy]ethanimidothioate, reference compound] showed an average phytotoxicity index (plant; 300 ppm) of 4.25, an average phytotoxicity index (plant; 600 ppm) of 5.0 and an LD50 [1] of 17 to 24 mg/kg. The foliar residual activity (southern armyworm larvae; by the 14th day, at an equivalent rate) was 20%.

With `CCCN(SN(C)C(=O)Oc1cc(C)c(N(C)C)c(C)c1)P(=S)(OCC)OCC` [4-(dimethylamino)-3,5-xylyl [[(diethoxyphosphinothioyl)-n-propylamino]thio]methylcarbamate] the mortality at 100 ppm (southern armyworm (SAW)) was 100% and the mortality at 0.6 ppm ([2]; rate 0.6 ppm) was 100%.

With `CCC1(CC)COP(=S)(N(SN(C)C(=O)ON=C(C)SC)C(C)C)OC1` [Methyl N-[[[[[isopropyl(5,5-diethyl-2-thioxo-1,3,2-dioxaphosphorinan-2-yl)amino]thio]methylamino]carbonyl]oxy]ethanimidothioate] the mortality at 11 ppm (southern armyworm (SAW)) was 60%, the mortality at 11 ppm (cabbage looper (CL); CL) was 95% and the LD50 [3] was > 2000 mg/kg. The mortality at 11 ppm (tobacco budworm (TBW)) was 100%.

With `COP(=S)(c1ccccc1)N(SN(C)C(=O)ON=C(C)SC)C(C)C` (centres unmarked) [Methyl N-[[[[[[methoxy(phenyl)phosphinothioyl]isopropylamino]thio]methylamino]carbonyl]oxy]ethanimidothioate] the mortality at 3.3 ppm (southern armyworm (SAW)) was 90%, the mortality at 25 ppm (housefly (HF)) was 50% and the mortality at 25 ppm (cotton boll weevil (BW)) was 80%. The mortality at 3.3 ppm (cabbage looper (CL)) was 50%.

With `CSC(C)=NOC(=O)N(C)SN(C1CCCCC1)P1(=S)OCC(C)(C)CO1` [Methyl N-[[[[[cyclohexyl(5,5-dimethyl-2-thioxo-1,3,2-dioxaphosphorinan-2-yl)amino]thio]methylamino]carbonyl]oxy]ethanimidothioate] the mortality at 11 ppm (southern armyworm (SAW)) was 70%, the mortality at 11 ppm (cabbage looper (CL); CL) was 87.5% and the LD50 [3] was > 8000 mg/kg. The mortality at 11 ppm (tobacco budworm (TBW)) was 95%.

With `CSC(C)=NOC(=O)N(C)SN(C(C)C)P1(=S)OCCO1` [Methyl N-[[[[[isopropyl(2-thioxo-1,3,2-phospholan-2-yl)amino]thio]methylamino]carbonyl]oxy]ethanimidothioate] the mortality at 11 ppm (southern armyworm (SAW)) was 40%, the mortality at 11 ppm (cabbage looper (CL); CL) was 48% and the mortality at 11 ppm (tobacco budworm (TBW)) was 45%.

Molecule `CSC(C)=NOC(=O)N(C)SN(C(C)C)P1(=S)OC(C)CC(C)(C)O1` (centres unmarked) [Methyl N-[[[[[isopropyl(4,4,6-trimethyl-2-thioxo-1,3,2-dioxaphosphorinan-2-yl)amino]thio]methylamino]carbonyl]oxy]ethanimidothioate] has a mortality at 11 ppm (cabbage looper (CL); CL) of 92.5%.

In the case of `CCN(SN(C)C(=O)ON=C(C)SC)P1(=S)OCC(C)(C)CO1` [Methyl-[[[[[ethyl(5,5-dimethyl-2-thioxo-1,3,2-dioxaphosphorinan-2-yl)amino]thio]methylamino]carbonyl]oxy]ethanimidothioate], the mortality at 11 ppm (cabbage looper (CL); CL) is reported as 56%.

For `CCOP(=S)(OCC)N(SN(C)C(=O)ON=C(C)SC)C(C)C` [Methyl N-[[[[[(diethoxyphosphinothioyl)isopropylamino]thio]methylamino]carbonyl]oxy]ethanimidothioate], the average phytotoxicity index (plant; 300 ppm) was “about 1.0”, the average phytotoxicity index (plant; 600 ppm) was ~1.5 and the “phytotoxicity compared with parent compound” value (plant; in general) was “in general less phytotoxic than the parent”. For the same molecule, the mortality at 3.3 ppm (southern armyworm (SAW)) was 100%, the “phytotoxicity compared with parent compound” value (eggplant) was “markedly less phytotoxic” and the mortality at 25 ppm (housefly (HF); HF, rate 25 ppm, read-out: Mortality) was 80%. For the same molecule, the mortality at 50 ppm (cotton boll weevil (BW); BW, rate 50 ppm) was 60%, the mortality at 1 ppm ([2]; rate 1.0 ppm) was 100% and the mortality at 3.3 ppm (cabbage looper (CL); CL, rate 3.3 ppm, read-out: Mortality) was 100%. The LD50 [1] was 105 mg/kg, the “oral toxicity relative to the parent methylcarbamate” value (male rats) was “less than one fourth as toxic as the parent methylcarbamate” and the “mortality, foliar residual effectiveness” value (southern armyworm larvae; seven weeks after the treatment was applied, 70560 min) was 100%.

For `CSC(C)=NOC(=O)N(C)SN(C(C)(C)C)P1(=S)OCC(C)(C)CO1` [Methyl N-[[[[[(5,5-dimethyl-2-thioxo-1,3,2-dioxaphosphorinano-2-yl)tert-butylamino]thio]methylamino]carbonyl]oxy]ethanimidothioate], the crystallinity (crystallinity) was “extremely crystalline”.

For `CCC1(CC)COP(=S)(N(SN(C)C(=O)ON=C(C)SC)C2CCCCC2)OC1` [Methyl-[[[[[cyclohexyl(5,5-diethyl-2-thioxo-1,3,2-dioxaphosphorinan-2-yl)amino]thio]methylamino]carbonyl]oxy]ethanimidothioate], the mortality at 11 ppm (southern armyworm (SAW)) was 70%, the mortality at 11 ppm (cabbage looper (CL); CL) was 77.5% and the LD50 [3] was > 8000 mg/kg. It also gave a mortality at 11 ppm (tobacco budworm (TBW)) of 95%.
